Assay results reported in patent US20240209011A1, “HETEROAROMATIC PHOSPHONIUM SALTS FOR TREATING CANCER” (FLORATEK PHARMA S.A., priority 2021, published 2024).

Columns and labels:
T47D = assay: Cell viability assay (CellTiter-Blue/CellTiter-Glow); format: cell-based; settings: Homo sapiens; breast carcinoma cell line T47D; absolute IC50; 72 h
Procedure, shortened: (§1)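 Readout: CellTiter-Blue (ex 570/em 600 nm) or CellTiter-Glo luminescence after 72 h compound exposure. 5–6 half-log concentrations, top 30 or 100 μM, duplicate/triplicate, DMSO <0.3%. IC50 = absolute, 4-parameter fit at T/C=50%.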

U-251 = assay: as above; format: cell-based; settings: Homo sapiens; brain carcinoma cell line U-251; absolute IC50; 72 h
Procedure, shortened: as §1

ZR-75-1 = assay: as above; format: cell-based; settings: Homo sapiens; breast carcinoma cell line ZR-75-1; absolute IC50; 72 h
Procedure, shortened: as §1

MDA-MB-436 = assay: as above; format: cell-based; settings: Homo sapiens; breast carcinoma cell line MDA-MB-436; absolute IC50; 72 h
Procedure, shortened: as §1

SH-SY-5Y = assay: as above; format: cell-based; settings: Homo sapiens, SH-SY5Y; brain carcinoma cell line SH-SY-5Y; absolute IC50; 72 h
Procedure, shortened: as §1

SK-N-AS = assay: as above; format: cell-based; settings: Homo sapiens; brain carcinoma cell line SK-N-AS; absolute IC50; 72 h
Procedure, shortened: as §1

HCC1806 = assay: as above; format: cell-based; settings: Homo sapiens; breast carcinoma cell line HCC1806; absolute IC50; 72 h
Procedure, shortened: as §1

U-118 = assay: as above; format: cell-based; settings: brain carcinoma cell line U-118; absolute IC50; 72 h
Procedure, shortened: as §1

Panc-1 = assay: as above; format: cell-based; settings: Homo sapiens; pancreatic carcinoma cell line Panc-1; absolute IC50; 72 h
Procedure, shortened: as §1

ABL1-phosphorylated = target: T1, ABL1-phosphorylated (Homo sapiens, UniProt P00519); assay: KINOMEscan competition binding assay, Kd; settings: 11-point 3-fold dilution series
T1 construct: purchased Eurofins (KINOMEscan); host or cells: T7 phage in BL21-derived E. coli, or HEK-293
Method: (§2) Selected compounds were screened for kinase inhibition using the KINOMEscan™ assay (Eurofins) which is based on a competition binding assay that quantitatively measures the ability of a compound to compete with an immobilized, active-site directed ligand. The assay was performed by combining three components: DNA-tagged kinase; immobilized ligand; and the test compound. The ability of the test compound to compete with the immobilized ligand was measured via quantitative PCR of the DNA tag.
(§3) Kinase-tagged T7 phage strains were prepared in an E. coli host derived from the BL21 strain. E. coli were grown to log-phase and infected with T7 phage and incubated with shaking at 32° C. until lysis. The lysates were centrifuged and filtered to remove cell debris. The remaining kinases were produced in HEK-293 cells and subsequently tagged with DNA for qPCR detection. Streptavidin-coated magnetic beads were treated with biotinylated small molecule ligands for 30 minutes at room temperature to generate affinity resins for kinase assays. The liganded beads were blocked with excess biotin and washed with blocking buffer (SeaBlock (Pierce), 1% BSA, 0.05% Tween 20, 1 mM DTT) to remove unbound ligand and to reduce non-specific binding. Binding reactions were assembled by combining kinases, liganded affinity beads, and test compounds in 1× binding buffer (20% SeaBlock, 0.17×PBS, 0.05% Tween 20, 6 mM DTT). Test compounds were prepared as 111× stocks in 100% DMSO. Kds were determined using an 11-point 3-fold compound dilution series with three DMSO control points. All compounds for Kd measurements are distributed by acoustic transfer (non-contact dispensing) in 100% DMSO. The compounds were then diluted directly into the assays such that the final concentration of DMSO was 0.9%. All reactions performed in polypropylene 384-well plate. Each was a final volume of 0.02 ml. The assay plates were incubated at room temperature with shaking for 1 hour and the affinity beads were washed with wash buffer (1×PBS, 0.05% Tween 20). The beads were then resuspended in elution buffer (1×PBS, 0.05% Tween 20, 0.5 μM nonbiotinylated affinity ligand) and incubated at room temperature with shaking for 30 minutes. The kinase concentration in the eluates was measured by qPCR.
(§4) Binding constants (Kds) were calculated with a standard dose-response curve using the Hill equation: Response=Background+[Signal−Background/i+(Kd^Hill Slope/Dose^Hill Slope)]. The Hill Slope was set to −1. Curves were fitted using a non-linear least square fit with the Levenberg-Marquardt algorithm.

ABL1-nonphosphorylated = target: T2, ABL1-nonphosphorylated (Homo sapiens, UniProt P00519); assay: KINOMEscan competition binding assay, Kd; settings: 11-point 3-fold dilution series
T2 construct: purchased Eurofins (KINOMEscan); host or cells: T7 phage in BL21-derived E. coli, or HEK-293
Method: as §2, §3, §4

[1] = target: T3, ABL1(E255K)-phosphorylated (Homo sapiens, UniProt P00519, E255K); assay: KINOMEscan competition binding assay, Kd; settings: 11-point 3-fold dilution series
T3 construct: purchased Eurofins (KINOMEscan); host or cells: T7 phage in BL21-derived E. coli, or HEK-293
Method: as §2, §3, §4

OVXF 899 = assay: Cell viability assay (CellTiter-Blue/CellTiter-Glow); format: cell-based; settings: ovarian carcinoma cell line OVXF 899; absolute IC50; 72 h
Procedure, shortened: as §1

T2 sequence (P00519 whole entry): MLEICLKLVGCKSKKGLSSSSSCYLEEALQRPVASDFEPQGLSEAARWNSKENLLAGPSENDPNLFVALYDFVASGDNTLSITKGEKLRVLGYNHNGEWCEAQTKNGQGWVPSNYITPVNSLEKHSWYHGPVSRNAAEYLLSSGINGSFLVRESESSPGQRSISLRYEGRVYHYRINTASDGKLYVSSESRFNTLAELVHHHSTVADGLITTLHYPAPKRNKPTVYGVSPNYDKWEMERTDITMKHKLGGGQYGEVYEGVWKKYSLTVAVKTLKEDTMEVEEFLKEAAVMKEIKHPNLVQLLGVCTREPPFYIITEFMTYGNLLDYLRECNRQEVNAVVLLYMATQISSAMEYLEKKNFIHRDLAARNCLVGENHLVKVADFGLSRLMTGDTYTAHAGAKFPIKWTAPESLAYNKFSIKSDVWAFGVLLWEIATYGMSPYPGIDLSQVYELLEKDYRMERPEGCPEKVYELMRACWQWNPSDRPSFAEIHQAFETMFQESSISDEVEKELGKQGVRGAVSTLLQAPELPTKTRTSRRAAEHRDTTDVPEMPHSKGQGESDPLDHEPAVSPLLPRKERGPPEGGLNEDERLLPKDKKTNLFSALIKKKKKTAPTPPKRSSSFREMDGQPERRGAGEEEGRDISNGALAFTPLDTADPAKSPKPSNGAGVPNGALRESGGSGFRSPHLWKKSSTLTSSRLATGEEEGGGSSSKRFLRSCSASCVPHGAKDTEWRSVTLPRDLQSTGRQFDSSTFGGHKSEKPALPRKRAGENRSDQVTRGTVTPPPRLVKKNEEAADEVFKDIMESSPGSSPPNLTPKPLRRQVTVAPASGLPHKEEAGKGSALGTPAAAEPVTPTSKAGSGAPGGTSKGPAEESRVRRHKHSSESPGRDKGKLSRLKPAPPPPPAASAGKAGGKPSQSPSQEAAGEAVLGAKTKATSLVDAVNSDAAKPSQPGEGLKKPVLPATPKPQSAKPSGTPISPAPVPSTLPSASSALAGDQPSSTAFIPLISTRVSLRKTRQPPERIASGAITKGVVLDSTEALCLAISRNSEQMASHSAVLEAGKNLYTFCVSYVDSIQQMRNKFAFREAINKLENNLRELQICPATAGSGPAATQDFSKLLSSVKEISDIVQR
T1 sequence (P00519 whole entry): as above
T3 sequence (P00519 whole entry E255K): as the sequence (P00519 whole entry) above, with E255K counted along it

Compound O=c1cc(-c2ccc(CCCC[P+](c3ccccc3)(c3ccccc3)c3ccccc3)cc2)oc2c3c(ccc12)OCO3.[Br-] [SND123, 4-[4-(6-oxo-[1,3]dioxolo[4,5-h]chromen-8-yl)phenyl]butyl-triphenylphosphonium bromide] has an IC50 (T47D) of 1.7 µM, an IC50 (U-251) of 1.87 µM and an IC50 (ZR-75-1) of 2.5 µM. For the same compound, the IC50 (MDA-MB-436) was 2.3 µM, the IC50 (SH-SY-5Y) was 4.9 µM and the IC50 (SK-N-AS) was 3.5 µM. For the same compound, the IC50 (HCC1806) was 2.3 µM, the IC50 (U-118) was 8.3 µM and the IC50 (Panc-1) was 2.32 µM. The Kd (ABL1-phosphorylated) was 0.86 µM, the Kd (ABL1-nonphosphorylated) was 1.3 µM and the Kd [1] was 0.97 µM.

In the case of COc1c(O)ccc2c(=O)cc(-c3ccc(CCCC[P+](c4ccccc4)(c4ccccc4)c4ccccc4)cc3)oc12.[Br-] [SND140, (4-(4-(7-hydroxy-8-methoxy-4-oxo-4H-chromen-2-yl)phenyl)butyl)triphenylphosphonium bromide], the Kd (ABL1-phosphorylated) is reported as 0.7 µM, the Kd (ABL1-nonphosphorylated) is reported as 1.5 µM and the Kd [1] is reported as 0.66 µM.

With CCNC(=O)Oc1ccc2c(=O)cc(-c3ccc(CCCC[P+](c4ccccc4)(c4ccccc4)c4ccccc4)cc3)oc2c1O.[Br-] [SND126A, 4-[4-[7-(Ethylcarbamoyloxy)-8-hydroxy-4-oxo-chromen-2-yl]phenyl]butyltriphenylphosphonium bromide] the IC50 (OVXF 899) was 17.6 µM.
